Reference: paper PMC9890698 (BMC Biology, 2023)
Where “and” joins values, the source holds several entries; their conditions need not be identical. Identical values can stand only once.

Target: T1, Human P2Y1-R (Homo sapiens, UniProt P47900)
T1 construct: expressed in transfected cells; host or cells: HEK293T/17
Assay: Gαq protein activation BRET2 assay (Gαq-RLuc8/GFP2-Gγ2/Gβ1) in HEK293T cells expressing P2Y1-R
Type: cell-based
Settings: for G protein signaling, Ligand-modulated BRET (% of maximum MRS2179 mean value): Figure 4a, individual replicates
Text: As previously described, using a BRET^2 (bioluminescence resonance energy transfer)-based assay, we directly monitored the basal Gαq protein activation by measuring the interaction between Gαq and Gγ2 subunits of the Gαqβ1γ2 heterotrimer complex. Indeed, this assay is based on the non-radiative transfer between the Renilla reniformis luciferase (RLuc8) energy donor fused to the Gαq protein subunit and the fluorescent GFP2 energy acceptor fused to Gγ2 protein subunit (Fig. 1a). […] By contrast, ligand-independent constitutive receptor activation or agonist-induced receptor activation will promote Gαq/Gγ2 subunit dissociation, thereby leading to a decrease of the basal BRET signal (Fig. 1a). […] To preclude any P2Y1-R activation by a passive release of ADP by HEK293T cells, we performed similar experiments in the presence of high concentration of apyrase (0.2U/mL) to degrade any trace of ADP in the medium (Additional File 2: Fig. S2a). Under these conditions, P2Y1-R expression still induces a marked and significant decrease of the basal BRET signal compared to control cells (pcDNA3.1), thereby supporting a P2Y1-R-dependent constitutive activation of Gαq protein. […] Of note, because P2Y1-R and AT1-R were respectively Myc- and HA-tagged and were thus detected using different primary antibodies, their expression at the cell surface cannot be compared between each other’s.
Human P2Y1-R (NCBI Reference Sequence: NM_002563.2) and P2Y12-R (NCBI Reference Sequence: NM_022788.3) were fused to double Myc epitope and rat AT1-R (NCBI Reference Sequence: NM_030985.4) to HA tag in N-terminus extracellular region. Alternatively, receptors were also fused to Venus tag in C-terminus intracellular region. Plasmids encoding Gαq-RLuc8, GFP2-Gγ2 and untagged Gβ1 were previously described. ADP was purchased from Sigma-Aldrich/Merck (Darmstadt, Germany). […] The Gq inhibitor (FR900359) was kindly supplied by Evi Kostenis (University of Bonn. Germany).
G protein activation and β-arrestin 2 recruitment were performed as previously described. Briefly, vectors encoding receptors, Gαq-RLuc8, GFP2-Gγ2, Gβ1, or β-arrestin 2 were transiently cotransfected into HEK293T/17 cells as indicated in the figure legends. Forty-eight hours after transfection, cells were washed and resuspended in PBS containing 0.1% (w/v) glucose at room temperature and then distributed (80 μg proteins/well) in a 96-well microplate (PerkinElmer). For G protein activation experiments (BRET^2), cells were incubated in the absence (basal BRET signal) or in the presence of ligand for 1 minute. BRET signal between RLuc8 and GFP2 was measured after addition of the luciferase substrate coelenterazine 400a (5 μM). For β-arrestin 2 recruitment (BRET^1), cells were stimulated with ligands for 5 or 15 min. BRET signal was recorded after incubation with coelenterazine h (5 μM) for 8 min. For kinetics studies, BRET signal between RLuc and Venus was recorded at 20-s intervals at basal state for the 2 first minutes and then for 5 min after ligand injection. For saturation curves (BRET^1), the expression level of Venus- or RLuc-tagged protein was determined by direct measurement of total fluorescence and luminescence respectively. Total fluorescence was first measured with an excitation filter at 485 nm and an emission filter at 520 nm. Then, the same sample was incubated for 8 minutes with 5 μM coelenterazine h and the total luminescence was measured. BRET^2 and BRET^1 readings were collected using a modified Infinite F500 (Tecan Group Ltd). The BRET^2 signal was calculated by the ratio of emission of GFP2 (510–540 nm) to RLuc8 (370–450 nm) and the BRET^1 signal by the ratio of emission of Venus (520–570 nm) to RLuc (370–480 nm). […]

[1] = G protein signaling, Fig. 4a, 1 min

T1 sequence (P47900 whole entry): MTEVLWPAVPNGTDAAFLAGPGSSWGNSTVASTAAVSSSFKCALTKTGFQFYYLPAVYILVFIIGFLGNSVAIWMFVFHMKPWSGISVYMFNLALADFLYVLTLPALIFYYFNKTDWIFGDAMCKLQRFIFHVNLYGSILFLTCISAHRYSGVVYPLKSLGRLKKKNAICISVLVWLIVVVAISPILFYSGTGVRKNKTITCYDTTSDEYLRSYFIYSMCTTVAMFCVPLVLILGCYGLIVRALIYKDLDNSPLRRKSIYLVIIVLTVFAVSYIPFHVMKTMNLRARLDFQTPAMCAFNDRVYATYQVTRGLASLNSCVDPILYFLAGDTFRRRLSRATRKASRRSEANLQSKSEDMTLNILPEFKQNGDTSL

Q: With CNc1nc(I)nc2c1ncn2[C@H]1C[C@H](OP(=O)(O)O)[C@]2(COP(=O)(O)O)C[C@H]12 [MRS2500, 2-iodo-N6-methyl-(N)-methanocarba-2′-deoxyadenosine-3′,5′-bisphosphate] as the compound, how does the “G protein signaling, Ligand-modulated BRET (% of maximum MRS2179 mean value)” value ([Ligand] 1.00E-04 M) read?
A: Its value is 155.404 % of maximum MRS2179 mean value and 138.849 % of maximum MRS2179 mean value and 107.119 % of maximum MRS2179 mean value and 132.185 % of maximum MRS2179 mean value and 125.72 % of maximum MRS2179 mean value and 141.754 % of maximum MRS2179 mean value.

Q: What about the “G protein signaling, Ligand-modulated BRET (% of maximum MRS2179 mean value)” value ([Ligand] 1.00E-05 M) of the same compound?
A: The value was 122.914 % of maximum MRS2179 mean value and 111.352 % of maximum MRS2179 mean value and 93.6281 % of maximum MRS2179 mean value and 124.36 % of maximum MRS2179 mean value and 97.7584 % of maximum MRS2179 mean value and 107.998 % of maximum MRS2179 mean value.

Q: And the “G protein signaling, Ligand-modulated BRET (% of maximum MRS2179 mean value)” value ([Ligand] 1.00E-06 M)?
A: The value was 73.5711 % of maximum MRS2179 mean value and 80.459 % of maximum MRS2179 mean value and 53.1675 % of maximum MRS2179 mean value and 68.2708 % of maximum MRS2179 mean value and 52.8113 % of maximum MRS2179 mean value and 71.2103 % of maximum MRS2179 mean value.

Q: And the “G protein signaling, Ligand-modulated BRET (% of maximum MRS2179 mean value)” value ([Ligand] 1.00E-07 M)?
A: Its value is 18.6255 % of maximum MRS2179 mean value and 25.6955 % of maximum MRS2179 mean value and 14.1554 % of maximum MRS2179 mean value and 20.945 % of maximum MRS2179 mean value and 1.4 % of maximum MRS2179 mean value and 18.5955 % of maximum MRS2179 mean value.

Q: What about the “G protein signaling, Ligand-modulated BRET (% of maximum MRS2179 mean value)” value ([Ligand] 1.00E-08 M) of the same compound?
A: The value was 1.081 % of maximum MRS2179 mean value and -4.947 % of maximum MRS2179 mean value and -10.1975 % of maximum MRS2179 mean value and -7.982 % of maximum MRS2179 mean value and -25.6775 % of maximum MRS2179 mean value and 3.691 % of maximum MRS2179 mean value.

Q: What about the “G protein signaling, Ligand-modulated BRET (% of maximum MRS2179 mean value)” value ([Ligand] 1.00E-09 M) of the same compound?
A: Its value is -4.558 % of maximum MRS2179 mean value and -14.6104 % of maximum MRS2179 mean value and -16.9372 % of maximum MRS2179 mean value and -9.323 % of maximum MRS2179 mean value and -17.5921 % of maximum MRS2179 mean value and 4.08 % of maximum MRS2179 mean value.

Q: And the “G protein signaling, Ligand-modulated BRET (% of maximum MRS2179 mean value)” value ([Ligand] 1.00E-10 M)?
A: The value was -10.8256 % of maximum MRS2179 mean value and -10.2571 % of maximum MRS2179 mean value and -9.064 % of maximum MRS2179 mean value and -13.8903 % of maximum MRS2179 mean value and -18.6423 % of maximum MRS2179 mean value and -6.511 % of maximum MRS2179 mean value.

Q: What about the EC50 [1] of the same compound?
A: Its EC50 is 772 nM.

Q: And the “pEC50 ± s.e.m.” value [1]?
A: Its value is 6.113 ± 0.07237.

Q: What about the “Emax ± s.e.m.” value (G protein signaling, Fig. 4a, 1 min, normalized to the mean value of maximal MRS2179 response, in %) of the same compound?
A: The value was 127.2 ± 3.892.

Q: And the “Behaviour on P2Y1-R-dependent constitutive Gαq protein activation” value (HEK293T cells, result in words)?
A: The value was “behaved as inverse agonists”.
